Source: patent US20240336567A1, “PESTICIDAL AND HERBICIDAL COMPOUNDS AND METHODS OF USE THEREOF” (AG Plenus Ltd, priority 2021, published 2024)

Tests used:
[1] = in vitro thermal shift (binding of compound to the target); conditions: thermal shift caused by binding of the compound to the (unnamed) target
POAAN = test: In-planta LTP pre-emergence, visual phenotype; assay type: in vivo, Poa annua; conditions: monocot; for pest or weed control at 2000 g/ha: Poa annua, 432 h, read-out: IG Inhibited growth (% effect)
Experimental: (§1) A basic panel of 8 weed species (Table 3) were sowed in 4×4×7 cm plastic pots containing inert sand (Sweet sand), intensively washed using osmosis water. Each specie was sowed in a separate pot. In each pot 10-15 seeds were sowed according to the specie viability. Sowing was performed one day before application. The plants were grown for 21 days in a controlled greenhouse (26±2° C. day 20±2° C. night). Hood irrigation (tap water+Shefer 5:3:8 8 mM) was given at a 50% water content by weight. Compounds were soluble in water (DDW), and commercial herbicide control was soluble in formulation B (Table 4). Application was conducted with an industrial sprayer (TeeJet 6502E nozzle) at a rate of 2 kg/ha and spray volume of […]. Pre-emergence advanced dose response experiment application was conducted at six rates between 1-0.0312 kg/ha and spray volume of […]. Percentage of emergence was evaluated at 15 DAA. Visual phenotyping was recorded using a scale of 0-6 (0: no visible effect, 6: maximum effect) at 18 DAA. All experiments included an untreated control, a solvent control and a positive control (commercial herbicide A.I.). Statistical analysis for visual phenotyping determined by a median value of ≥3.5 and Fisher test (pval≤0.05). Statistical analysis for plant emergence determined by % emergence ≥50 and T test (pval≤0.05), as well as Wilcox test (pval≤0.05).

AMAPA [2] = test: In-planta LTP pre-emergence, visual phenotype; assay type: in vivo, Amaranthus palmeri; conditions: dicot; for pest or weed control at 2000 g/ha: Amaranthus palmeri, 432 h, read-out: IG Inhibited growth (% effect)
Experimental: as §1

Arabidopsis thaliana = test: HTPS - Dicot - Pre-emergence; assay type: in vivo; conditions: N/A: not active; for Emax: read-out: HTPS - Dicot - Pre Max effect
Outline: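 Pre-emergence: compound in 50% acetone applied at 30 μL/well onto sown sand (Arabidopsis or Eragrostis teff), max 1.5 Kg/Ha, 2.5-fold dilutions. Green area imaged by RGB, normalized to give % inhibition; ED50, ED75, ED90 from log-dose curves, t-test versus controls.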

AMAPA [3] = test: In-planta LTP post-emergence, visual phenotype; assay type: in vivo, Amaranthus palmeri; conditions: dicot
Experimental: A basic panel of eight weed species (Table 3) sowed in 4×4×7 cm plastic pots containing a garden mix (klasmann). Each specie was sowed in a separate pot. In each pot, 10-15 seeds were sowed according to the specie viability. Timing of application determined at a 1-2 true leaf stage. The plants grew for 30 days in a controlled greenhouse (26±2° C. day, 20±2° C. night). Hood irrigation (tap water+Shefer 5:3:8 8 mM) was given at a 50% water content by weight. Two days before application, the tested plants thinned down to three plants per pot. Compounds were soluble in water (DDW), and commercial herbicide control was soluble in formulation B (Table 4). Before application, 1% (v/v) crop oil and 0.02% (v/v) surfactant (Tergitol™ 15-5-7) were added to the solution. Application was conducted with an industrial sprayer (TeeJet 6502E nozzle) at a rate of 2 kg/ha and spray volume of […]. Plants were evaluated at 3 time points (4, 8, 12 days after application (DAA)). At each time point, visual phenotyping was recorded using a scale of 0-6 (0: no visible effect, 6: maximum effect). At 12 DAA, plants foliage was harvested, dried and weighed for dry weight analysis.
Post-emergence advanced dose response experiment included 4 species: SETVI, ECHCO, AMAPA, ABUTH (Tables 3, 5). Application was conducted at six rates between 0.6-0.0187 kg/ha and spray volume of […]. Plants were evaluated at 4 time points (6, 12, 18 and 26 DAA). At each time point, visual phenotyping was recorded using a scale of 0-6 (0: no visible effect, 6: maximum effect). At 26 DAA, plants foliage was harvested, dried and weighed for dry weight analysis.
Post-emergence advanced wide panel experiment included 24 weed species (Table 5). Application was conducted at 2 rates of 2 kg/ha and 0.25 kg/ha and spray volume of […]. Visual phenotyping was recorded at 4, 11, 17 and 20 DAA using a scale of 0-6 (0: no visible effect, 6: maximum effect). At 21 DAA, plants foliage was harvested, dried, and weighed for dry weight analysis. All experiments included an untreated control, a solvent control, and a positive control (commercial herbicide A.I.). Statistical analysis for visual phenotyping determined by a median value of ≥3.5 and Fisher test (pval≤0.05). Statistical analysis for dry weight determined by % inhibition ≥50 and T test (pval≤0.05), as well as Wilcox test (pval≤0.05).

Row | SMILES | in vitro Thermal Shift [1] [°C] | pest or weed control at 2000 g/ha (POAAN) [%] | DE Disturbed emergence (% effect) (POAAN) | pest or weed control at 2000 g/ha (AMAPA [2]) [%] | DAB Disturbed apical bud (% effect) (AMAPA [2]) | HTPS - Dicot - Pre ED50 (Arabidopsis thaliana) [g/ha] | Emax (Arabidopsis thaliana) [%] | BL Bleaching (% effect) (AMAPA [3]) | IG Inhibited growth (% effect) (AMAPA [3])
1 | CC(N)COc1cccc(C(=O)O)c1 (centres unmarked) [Compound 106] | 13 | 100 | DE (100) % | 60 | DAB (60), % | 33 | 100 | BL^2 (60) % | –
2 | C#CCOC(=O)c1cccc(OCC(C)N)c1 (centres unmarked) [Compound 111] | 4 | 100 | DE (100), % | 60 | – | 24 | 100 | BL (40) % | –
3 | CCCCOC(=O)c1cccc(OCC(C)N)c1 (centres unmarked) [Compound 112] | 4 | 100 | DE (100), % | 60 | – | 20 | 100 | – | IG (60), %
4 | C[C@@H](N)COc1cccc(C(=O)O)c1 [Compound 154] | 13 | – | DE (100) % | 60 | – | – | – | BL (60) % | –
